Several values for one entry are separate records, joined by “and”; a condition that tells them apart may be missing. Equal values may be shown once.
System: 885512-296-R-J2-PDC complex spheroid growth, % test/control
Experiment: Anticancer human tumor 885512-296-R-J2-PDC patient-derived breast carcinoma cell line growth inhibition [AhR]
Conditions: for viability, T/C: stronger effect = lower value
Excerpt: Multicellular complex tumor spheroid response to aryl hydrocarbon receptor antagonists in combination with a variety of drugs and investigational agents in selected tumor cell lines
The current study was undertaken to assess response to aryl hydrocarbon receptor antagonists in combination with standard-of-care drugs and investigational agents in solid tumor complex spheroid models. Complex spheroids include a stromal component modeled by human endothelial cells (HUVEC) and fibroblasts modeled by human mesenchymal stem cells (MSCs). The concentration ranges selected for each drug and investigational agent were based upon clinically achievable concentrations if the clinical Cmax of the agent was known.
Compounds. The drugs and investigational agents: BAY 2416964 (NSC825713), GNF351 (NSC835774), CH-223191 (NSC835775), CPI-455 (NSC825282), aza-TdCyd (NSC777586), decitabine (NSC127716), belinostat (NSC758774), entinostat (NSC756642), pevonedistat (NSC761192), tazemetostat (NSC777109), talazoparib (NSC765396), olaparib (NSC753686), selinexor (NSC780203), nedisertib (M3814, NSC802822), bortezomib (NSC756655), venetoclax (NSC766270), doxorubicin (NSC123127), elimusertib (BAY189344, NSC800525), ceralasertib (AZD6738, NSC777638), TAK-243 (NSC785004), alisertib (NSC759677), etoposide (NSC141540), topotecan (NSC609699), eribulin (NSC707389), gemcitabine (NSC613327), carboplatin (NSC241240), cisplatin (NSC119875), and SN-38 (NSC673596) were obtained from the National Cancer Institute (NCI) Developmental Therapeutics Program Chemical Repository (32). The FDA-approved anticancer drug set is available from the Developmental Therapeutics Program at https://dtp.cancer.gov/organization/dscb/obtaining/available plates.htm. […] The stock solutions were prepared in dimethyl sulfoxide (DMSO, Sigma-Aldrich, St. Louis, MO, cat. D2650), except for the platinum compounds which were prepared in saline (Quality Biological, Gaithersburg, MD, cat. 114-055-101), at 800-fold the tested concentration and stored at -70 degrees C prior to their use. All drugs and investigational agents were tested over a range starting from a high concentration at or near the clinical Cmax and decreasing in half-log increments. If the clinical Cmax for an agent had not been determined, the highest concentration tested was 10 microM (Table 1).
Cell Culture. All cells were maintained in an incubator at 37 degrees C and 5% CO2 with 95% humidity. The PDC lines were cultured according to standard operating procedures established by the NCI PDMR (https://pdmr.cancer.gov). Briefly, all PDCs were thawed and cultured in Matrigel-coated flasks prepared with a working solution of 1X Ham's F-12 nutrient mix, without supplementation (Invitrogen, Waltham, MA, cat. 11765054), 100 U/mL penicillin-streptomycin (Invitrogen, cat. 15140122), and 2.5% Matrigel (Corning Inc., Corning, NY, cat. 354248) for the first three passages. All PDCs were cultured in complete DMEM/F-12 media containing advanced DMEM/F-12 (Invitrogen, cat. 12634028), 4.9% defined fetal bovine serum, heat inactivated (HyClone Laboratories Inc., Logan, UT, cat. SH30070.03HI), 389 ng/mL hydrocortisone (Sigma-Aldrich, cat. H4001), 9.7 ng/mL human EGF recombinant protein (Invitrogen, cat. PHG0313), 23.4 microg/mL adenine (Sigma-Aldrich, cat. A2786), 97.3 U/mL penicillin-streptomycin (Invitrogen, cat. 15140122), 1.9 mM L-glutamine (Invitrogen, cat. 25030081), and 9.7 microM Y-27632 dihydrochloride (Tocris Bioscience, Bristol, United Kingdom, cat. 1254). The PDCs were cultured in complete DMEM/F12 media without 10 microM Y-27632 dihydrochloride for at least two passages prior to the screen. The established cell lines NCI-H1341 and […] were cultured in DMEM/F-12, HEPES (Invitrogen, cat. 11330032), 5% defined fetal bovine serum (HyClone Laboratories Inc., cat. SH30070.03), ITS premix universal culture supplement [insulin (5 microg/mL), transferrin (5 microg/mL), and selenious acid (5 ng/mL)] […]
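Also: spheroids exposed to compounds for seven days.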

IC50 (curve of compound)	SMILES	viability, T/C (compound 0.0316 µM)	viability, T/C (compound 0.1 µM)	viability, T/C (compound 0.316 µM)	viability, T/C (compound 1 µM)	viability, T/C (compound 3.16 µM)	viability, T/C (compound 10 µM)	other results
5.92 nM and 6.34 nM and 5.04 nM	CC(C)CC(NC(=O)C(Cc1ccccc1)NC(=O)c1cnccn1)B(O)O (stereo not given)	–	–	–	–	–	–	viability, T/C (compound 0.000949 µM): 106% and 93.4% and 96.8%; viability, T/C (compound 0.003 µM): 94.4% and 94.7% and 83.5%; viability, T/C (compound 0.00949 µM): 19.2% and 26.2% and 9.11%; viability, T/C (compound 0.03 µM): 1.45% and 1.42% and 0.86%; viability, T/C (compound 0.0949 µM): 0.43% and 0.3% and 0.26%; viability, T/C (compound 0.3 µM): 0.27% and 0.21% and 0.15%
> 10000 nM	CC(C)c1c(-c2ccccc2)nc2c(C#N)c[nH]n2c1=O	93.1% and 105% and 113%	103% and 96.8% and 99.5%	107% and 97.7% and 89%	95.2% and 98.4% and 113%	96.8% and 100% (2×)	90.8% and 92% and 95.9%	–
–	CC(CO)NC(=O)c1cc(-c2ccc(Cl)cc2)nn(-c2cnn(C)c2)c1=O (stereo not given)	–	–	96.5% [middle of 21 runs]	98.8% [middle of 21 runs]	–	93.9% [middle of 19 runs]	IC50 (compound alone, run of 08/08/2022): > 10000 nM
4590 nM and 4220 nM and 7200 nM	CC1(C)CCC(CN2CCN(c3ccc(C(=O)NS(=O)(=O)c4ccc(NCC5CCOCC5)c([N+](=O)[O-])c4)c(Oc4cnc5[nH]ccc5c4)c3)CC2)=C(c2ccc(Cl)cc2)C1	110% and 95.6% and 109%	109% and 91.1% and 99.6%	91.2% and 87.2% and 101%	94.4% and 79.7% and 98%	59.5% and 62.4% and 71.5%	24.6% and 16.2% and 41.4%	–
34 nM and 36 nM and 45.5 nM	CC1COCCN1c1cc(-c2ccnn2C)c2ccnc(-c3ccn[nH]3)c2n1 (stereo not given)	51.9% and 54.7% and 68%	10.5% and 10.1% and 13%	3.44% and 3.12% and 2.94%	2.43% and 2.64% and 1.91%	–	–	viability, T/C (compound 0.00316 µM): 82.9% and 88.1% and 101%; viability, T/C (compound 0.01 µM): 87.9% and 89.4% and 87.5%
2150 nM and 1640 nM and 1780 nM	CC1COCCN1c1cc(C2(S(C)(=N)=O)CC2)nc(-c2ccnc3[nH]ccc23)n1 (stereo not given)	103% and 100% and 97%	107% and 96.4% and 98.6%	101% and 104% and 91.9%	86.5% and 73.7% and 82.7%	31.6% and 18.2% and 17.2%	5.26% and 5.01% and 5.03%	–
> 3000 nM	CCN(c1cc(-c2ccc(CN3CCOCC3)cc2)cc(C(=O)NCc2c(C)cc(C)[nH]c2=O)c1C)C1CCOCC1	–	–	–	–	–	–	viability, T/C (compound 0.00949 µM): 99.4% and 113% and 105%; viability, T/C (compound 0.03 µM): 116% and 94.8% and 94.7%; viability, T/C (compound 0.0949 µM): 93% and 86.7% and 98.8%; viability, T/C (compound 0.3 µM): 89.7% and 91.3% and 78.9%; viability, T/C (compound 0.949 µM): 86.7% and 77.8% and 76.2%; viability, T/C (compound 3 µM): 72.8% and 67.7% and 80.9%
5.36 nM and 5.11 nM and 11.7 nM	CC[C@@]1(O)C(=O)OCc2c1cc1n(c2=O)Cc2cc3c(CN(C)C)c(O)ccc3nc2-1	6.59% and 7.5% and 7.58%	6.75% and 6.73% and 5.44%	–	–	–	–	viability, T/C (compound 0.000316 µM): 105% and 92.5% and 101%; viability, T/C (compound 0.001 µM): 101% and 96.7% and 108%; viability, T/C (compound 0.00316 µM): 65.5% and 69.2% and 88%; viability, T/C (compound 0.01 µM): 31.4% and 22.4% and 59.5%
< 0.949 nM	CCc1c2c(nc3ccc(O)cc13)-c1cc3c(c(=O)n1C2)COC(=O)[C@]3(O)CC	–	–	–	–	–	–	viability, T/C (compound 0.000949 µM): 17.5% and 17.7% and 9.88%; viability, T/C (compound 0.003 µM): 9.21% and 7.45% and 8.07%; viability, T/C (compound 0.00949 µM): 6.22% and 5.99% and 5.4%; viability, T/C (compound 0.03 µM): 4.21% and 4.52% and 3.14%; viability, T/C (compound 0.0949 µM): 2.53% and 2.06% and 1.76%; viability, T/C (compound 0.3 µM): 1.46% and 1.11% and 1.27%
613 nM and 774 nM and 399 nM	COc1cc(C2c3cc4c(cc3C(OC3OC5COC(C)OC5C(O)C3O)C3COC(=O)C23)OCO4)cc(OC)c1O (stereo not given)	107% and 84.7% and 91.2%	96% and 92.5% and 87.4%	78.1% and 72.5% and 59.1%	29.6% and 44.8% and 14.3%	10.7% and 9.52% and 9.14%	8.19% and 5.47% and 7.82%	–
–	COc1cc(Nc2ncc3c(n2)-c2ccc(Cl)cc2C(c2c(F)cccc2OC)=NC3)ccc1C(=O)O	53.5% and 54% and 51.9%	43.2% and 52% and 43.9%	48.8% and 56.9% and 53%	42.7% and 45% and 41.8%	38.3% and 53.3% and 41.6%	37% (2×) and 39.3%	–
8490 nM and 8770 nM and 8080 nM	COc1ccc([C@@H](O)c2cc(-c3ncnc4cc(N5CCOCC5)ccc34)c(F)cc2Cl)nn1	94.6% and 87.4% and 102%	106% and 92.4% and 99.4%	89.7% and 96.4% and 93.8%	92.1% and 84% and 75.6%	72.1% and 75.7% and 68.1%	46% and 46.8% and 45.7%	–

— PubChem BioAssay AID1919006 (Molecular Pharmacology Branch, DTP, NCI, 2023)
